≈ marks a conversion by molar mass, not a printed value.

These results are taken from patent US7332476B2, “Pyridyl substituted ketolide antibiotics” (Novartis AG, priority 2003, dated 2008).

What all share (test): MIC, broth microdilution (NCCLS)
For orientation: Dilution methods test growth across graded concentrations, often in twofold steps.

The subject of assay [1] is Enterococcus faecalis Enfa_29212. The assay is classed as cell-based. The following applies: Table 5, Strain ID C (Table 4): E. faecalis Enfa_29212. Put shortly: (§1)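 NCCLS broth microdilution with 2-fold serial drug dilutions (methanol stocks diluted in water); inoculum 3×10^5–7×10^5 CFU/ml in CAMHB, with 2-5% lysed horse blood for S. pneumoniae. Incubation 18-24 h at 35° C., ambient air, except S. pneumoniae (5-10% CO2). MIC is lowest concentration preventing visible growth.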

Assay [2] has as its system Haemophilus influenzae Hain_49247. The assay is classed as cell-based. The following applies: Table 5, Strain ID L (Table 4): H. influenzae Hain_49247; unit assumed.
In assay [3] the test system is Staphylococcus epidermidis Step_14990. The assay is classed as cell-based. The note with it: Table 5, Strain ID A (Table 4): S. epidermidis Step_14990; in µg/mL (unit assumed). Put shortly: as §1
Assay [4] relates to Staphylococcus epidermidis Step_f50654. It is filed as cell-based. The note with it: Table 5, Strain ID B (Table 4): S. epidermidis Step_f50654 Pen S; in µg/mL (unit assumed). Put shortly: as §1
The subject of assay [5] is Streptococcus pneumoniae Stpn_Erm S 4297. The assay is classed as cell-based. The following applies: Table 5, Strain ID I (Table 4): S. pneumoniae Stpn_Erm S 4297. Put shortly: as §1
Assay [6] relates to Streptococcus pneumoniae Stpn_Mef S 3427. It is filed as cell-based. The following applies: Table 5, Strain ID K (Table 4): S. pneumoniae Stpn_Mef S 3427. Put shortly:
as §1

Assay [7] concerns Streptococcus pyogenes Stpy_8668. It is filed as cell-based. The note with it: Table 5, Strain ID D (Table 4): S. pyogenes Stpy_8668. Put shortly: as §1
Assay [8] concerns Streptococcus pneumoniae Stpn_49619. The assay is classed as cell-based. The note with it: Table 5, Strain ID E (Table 4): S. pneumoniae Stpn_49619. Put shortly:
as §1

Assay [9] concerns Streptococcus pneumoniae Stpn_297-749. It is filed as cell-based. The note with it: Table 5, Strain ID F (Table 4): S. pneumoniae Stpn_297-749 Pen R. Put shortly: as §1
In assay [10] the test system is Streptococcus pneumoniae Stpn_280-962. It is filed as cell-based. The note with it: Table 5, Strain ID G (Table 4): S. pneumoniae Stpn_280-962 Pen S. Put shortly:
as §1

Assay [11] relates to S. pneumoniae Stpn_Erm 6849. The assay is classed as cell-based, Streptococcus pneumoniae. The note with it: Table 5, Strain ID H (Table 4): S. pneumoniae Stpn_Erm 6849; unit assumed. Put shortly:
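S. pneumoniae MIC by NCCLS broth microdilution in cation-adjusted Mueller-Hinton broth with 2-5% lysed horse blood, inoculum 3×10^5–7×10^5 CFU/ml, 2-fold drug dilutions. Incubated 18-24 hours at 35° C. in 5-10% CO2; MIC is lowest concentration preventing visible growth.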

Assay [12] deals with Streptococcus pneumoniae Stpn_Mef 5654. The assay is classed as cell-based. The note with it: Table 5, Strain ID J (Table 4): S. pneumoniae Stpn_Mef 5654; in µg/mL (unit assumed). Put shortly: as §1
Assay [13] concerns E. coli Esco_25922. It is filed as cell-based. The note with it: Table 5, Strain ID M (Table 4): E. coli Esco_25922; unit assumed. How it is done: Strains. The bacterial isolates listed in Table 4 were cultivated from −70° C. frozen stocks by two consecutive overnight passages (P1, P2) at 35° C. on 5% blood agar (Remel, Lenexa, Kans.). Chocolate agar (Remel) is used for Haemophilus influenzae. H. influenzae and Streptococcus pneumoniae are incubated in 5-10% CO2
Drug Stock Preparation. To determine the amount of solvent to be used to give the desired final concentration, the formula “weight obtained in mg/final concentration in mg/ml” will be used. It will give the amount of solvent in ml needed to be added to give the desired concentration. For example, if 2.5 mg/ml is the desired concentration and the weight of compound is 13.7 mg, then the amount of solvent to be added is […]. Methanol is used as the solvent to dissolve the test compounds. Further dilution of stock is done in sterile, deionized water. Drug stocks are kept frozen at −70° C., protected from light.
Susceptibility Testing. MICs are determined by the broth microdilution method in accordance with the NCCLS guidelines. In brief, organism suspensions are adjusted to a 0.5 McFarland standard to yield a final inoculum between 3×10^5 and 7×10^5 CFU/ml. Drug dilutions and inocula are made in sterile, cation adjusted Mueller-Hinton Broth (CAMHB) (Remel) for all but S. pneumoniae [CAMHB with 2-5% lysed horse blood (Remel)] and H. influenzae [Haemophilus Test Medium (Remel)]. An inoculum volume of 100 μl is added to wells containing 100 μl of broth with 2-fold serial dilutions of drug. All inoculated microdilution trays are incubated in ambient air at 35° C. for 18-24 hours, except for S. pneumoniae, and H. influenzae (both at 5-10% CO2).
Following appropriate incubation, the MIC is determined and the MIC is defined as the lowest concentration of the drug that prevented visible growth.

In the case of `CC[C@H]1OC(=O)[C@H](C)C(=O)[C@H](C)[C@@H](OC2O[C@H](C)C[C@H](N(C)C)[C@H]2O)[C@@](C)(OC)C[C@@H](C)C(=O)[C@H](C)[C@H]2N(CCCCn3cnc(-c4ccccc4)c3)C(=O)O[C@]12CC` (stereo partly shown) [Compound 7281], the MIC in [1] (in µg/mL (unit assumed)) was 0.1; in assay [2], 3.13 µg/mL (≈ 3.79 µM); in assay [3], 0.2; in assay [4], 0.1; in assay [5] it was “=0.05”; in assay [6], “=0.05”. Also, the MIC result in assay [7] is “=0.05”; in assay [8], “=0.05”; in assay [9], “=0.05”; in [10], “=0.05”; in [11], 0.2 µg/mL (≈ 0.242 µM); in assay [12], 0.4. The molecule further showed an MIC in assay [13] of 25 µg/mL (≈ 30.3 µM).
As for `CC[C@H]1OC(=O)[C@H](C)C(=O)[C@H](C)[C@@H](OC2O[C@H](C)C[C@H](N(C)C)[C@H]2O)[C@@](C)(OC)C[C@@H](C)C(=O)[C@H](C)[C@H]2N(CCCCn3cnc4ccccc43)C(=O)O[C@]12CC` (stereo partly shown) [Compound 7282], the MIC in [1] (in µg/mL (unit assumed)) stood at 0.1; in assay [2], 3.13 µg/mL (≈ 3.92 µM); in assay [3], 0.4; in [4], 0.2; in assay [5] (unit assumed) it was 0.2 µg/mL (≈ 0.25 µM); in [6] (in µg/mL (unit assumed)), 0.1. The MIC entry in assay [7] is “=0.05”; in assay [8], “=0.05”; in [9], “=0.05”; in assay [10], “=0.05”; in assay [11] it was 0.78 µg/mL (≈ 0.976 µM); in [12], 0.4. This molecule also showed an MIC in assay [13] of 12.5 µg/mL (≈ 15.6 µM).
As for `CC[C@H]1OC(=O)[C@H](C)C(=O)[C@H](C)[C@@H](OC2O[C@H](C)C[C@H](N(C)C)[C@H]2O)[C@@](C)(OC)C[C@@H](C)C(=O)[C@H](C)[C@@H]2[C@@H]1OC(=O)N2CCCCn1cnc2ncccc21` (stereo partly shown) [Compound 4713], the MIC was found to be 0.1 in assay [1] (in µg/mL (unit assumed)); 3.13 µg/mL (≈ 4.05 µM) in [2]; 0.4 in assay [3]; 0.4 in assay [4]; 0.1 µg/mL (≈ 0.13 µM) in [5] (unit assumed); 0.4 in assay [6] (in µg/mL (unit assumed)). In addition, the MIC entry in [7] was “=0.5”; in assay [8], “=0.5”; in [9] it was “=0.5”; in assay [10], “=0.5”; in assay [11], 0.78 µg/mL (≈ 1.01 µM); in assay [12] it was 3.13. Besides, the MIC in assay [13] was determined as 50 µg/mL (≈ 64.8 µM).
As to `CC[C@H]1OC(=O)[C@H](C)C(=O)[C@H](C)[C@@H](OC2O[C@H](C)C[C@H](N(C)C)[C@H]2O)[C@@](C)(OC)C[C@@H](C)C(=O)[C@H](C)[C@@H]2[C@@H]1OC(=O)N2CCCCc1ccc2ccccc2n1` (stereo partly shown) [Compound 5960], the MIC entry in [1] was “=0.05”; in assay [2] it was 3.13 µg/mL (≈ 4 µM); in [3], 0.2; in assay [4], 0.2; in [5] (unit assumed), 0.1 µg/mL (≈ 0.128 µM); in assay [6], “=0.05”. For the same molecule, the MIC result in [7] was “=0.05”; in assay [8] it was “=0.05”; in assay [9] it was “=0.05”; in [10], “=0.05”; in [11] it was 25 µg/mL (≈ 32 µM); in assay [12], 0.2. In assay [13], the MIC amounted to 25 µg/mL (≈ 32 µM).
Take `CC[C@H]1OC(=O)[C@H](C)C(=O)[C@H](C)[C@@H](OC2O[C@H](C)C[C@H](N(C)C)[C@H]2O)[C@@](C)(OC)C[C@@H](C)C(=O)[C@H](C)[C@H]2N(CCCCc3ccnc4ccccc34)C(=O)O[C@]12CC` (stereo partly shown) [Compound 7283]: the MIC in assay [4] is given as 0.2; in assay [6], “=0.05”; in [7], “=0.05”; in assay [8], “=0.05”; in assay [9], “=0.05”; in [10] it was “=0.05”. Also, the MIC amounted to 0.4 µg/mL (≈ 0.494 µM) in assay [11], 0.4 in assay [12] and 12.5 µg/mL (≈ 15.4 µM) in assay [13].
As for `CC[C@H]1OC(=O)[C@H](C)C(=O)[C@H](C)[C@@H](OC2O[C@H](C)C[C@H](N(C)C)[C@H]2O)[C@@](C)(OC)C[C@@H](C)C(=O)[C@H](C)[C@@H]2[C@@H]1OC(=O)N2CCCCc1ccnc2ccccc12` (stereo partly shown) [Compound 4711], the MIC result in assay [1] was “=0.05”; in [2] it was 1.56 µg/mL (≈ 1.99 µM); in [3], 0.1; in assay [4], 0.1; in assay [5] (unit assumed), 0.2 µg/mL (≈ 0.256 µM); in assay [6] it was “=0.5”. The MIC entry in [7] is “=0.5”; in [8], “=0.5”; in [9] it was “=0.5”; in assay [10], “=0.5”; in assay [11], 6.25 µg/mL (≈ 7.99 µM); in assay [12] it was 0.1. Moreover, in [13], the MIC came out at 50 µg/mL (≈ 63.9 µM).
Turning to `CC[C@H]1OC(=O)[C@H](C)C(=O)[C@H](C)[C@@H](OC2O[C@H](C)C[C@H](N(C)C)[C@H]2O)[C@@](C)(OC)C[C@@H](C)C(=O)[C@H](C)[C@H]2N(CCCCn3cnc(-c4cccnc4)c3)C(=O)O[C@]12CC` (stereo partly shown) [Compound 7280], the MIC in [1] (in µg/mL (unit assumed)) was 0.1; in assay [2], 6.25 µg/mL (≈ 7.57 µM); in assay [3], 0.2; in assay [4], 0.2; in assay [5], “=0.05”; in assay [6] (in µg/mL (unit assumed)), 0.1. For the same molecule, the MIC result was “=0.05” in assay [7]; “=0.05” in assay [8]; “=0.05” in [9]; “=0.05” in assay [10]; 0.4 µg/mL (≈ 0.484 µM) in assay [11]; 0.4 in [12]. In addition, in assay [13], the MIC is 25 µg/mL (≈ 30.3 µM).
With `CC[C@H]1OC(=O)[C@H](C)C(=O)[C@H](C)[C@@H](OC2O[C@H](C)C[C@H](N(C)C)[C@H]2O)[C@@](C)(OC)C[C@@H](C)C(=O)[C@H](C)[C@@H]2[C@@H]1OC(=O)N2CCCCn1cnc(-c2ccccc2)c1` (stereo partly shown) [Compound 6221], the MIC result in assay [1] was “=0.05”; in [2] it was 3.13 µg/mL (≈ 3.93 µM); in assay [3], 0.1; in assay [4] it was 0.1; in assay [5], “=0.05”; in assay [6] it was “=0.05”. Also, the MIC entry in assay [7] was “=0.05”; in [8] it was “=0.05”; in assay [9] it was “=0.05”; in assay [10], “=0.05”; in [11], 0.1 µg/mL (≈ 0.125 µM); in assay [12], 0.4. Further, in [13], the MIC is 25 µg/mL (≈ 31.4 µM).
